Source: patent publication US7582300B2, “Modulation of gamma delta T cells to regulate airway hyperresponsiveness” (National Jewish Health, priority 1999, dated 2009)

What was measured:
αβ T cell hybridomas = assay: Stimulation of αβ T cell hybridomas in vitro; assay type: cell-based
γδ T cells = assay: Stimulation of γδ T cells / γδ T cell hybridomas in vitro; assay type: cell-based; conditions: for stimulation of γδ T cell hybridomas: phospholipids tested by the inventors

## Cardiolipin
αβ T cell hybridomas
  stimulation of αβ T cell hybridomas: not αβ T cell hybridomas
γδ T cells
  stimulation of γδ T cell hybridomas: selectively stimulates γδ T cell hybridomas

## FGLQLEL (listed as Mycobacterium leprae) [SEQ ID NO:2, peptide from mycobacterial HSP-60 protein (from M. leprae)]
γδ T cells
  stimulation of γδ T cells by peptides: stimulatory for γδ T cells

## phosphatidyl-glycerol
γδ T cells
  stimulation of γδ T cell hybridomas: weakly stimulatory

## FALQLEL [SEQ ID NO:1]
γδ T cells
  stimulation of γδ T cells by peptides: stimulatory for γδ T cells
